Reference: patent US20210371827A1, “METHOD FOR PREPARING CANCER STEM CELL SPHEROIDS” (KOREA ADVANCED INSTITUTE OF SCIENCE AND TECHNOLOGY, priority 2018, published 2021)

Experiments:
Assay in all cases: Cell viability for doxorubicin (WST-1)
Format in all cases: cell-based, human
[1] = test system: SKOV3-ssiCSC; conditions: various concentrations, 24 hours
Description: (§1) ssiCSC spheroids prepared from different kinds of cancer cells (SKOV3, MCF-7, Hep3B and SW480) were isolated using trypsin (TrypLE Express, Gibco), and the isolated cells were washed with D-PBS twice. The ssiCSC was plated on a 96-well plate (1×10^4 cells/well) and was cultured in a cell growth medium at 37° C. for 24 hours. Then, the medium was removed, and a new medium comprising various concentrations of doxorubicin was added to each well and cultured for 24 hours. Next, each well was washed with D-PBS and was replaced with a new cell growth medium of 100 μl, and then WST-1 cell proliferation reagent (Roche) of 10 μl was added and cultured for 4 hours. Then, the absorbance at 450 nm (standard wavelength, 600 nm) was measured using a microplate reader (Molecular Devices).
(§2) In addition, the drug resistance of ssiCSC for doxorubicin (DOX) known as an anticancer agent was confirmed. Specifically, ssiCSC spheroids prepared by culturing on the pV4D4 surface for 8 days were isolated to single cells, and the cell was cultured on the conventional TCP surface to a 2D single layer, and then DOX at various concentrations was treated for 24 hours. […] The SW480-ssiCSC maintained drug resistance when subcultured on the TCP surface twice, and through this, it can be seen that original cancer cells were transformed into CSC-like cells (FIG. 12c).

[2] = test system: SW480-ssiCSC; conditions: various concentrations, 24 hours
Description: as §1, §2

[3] = test system: ssiCSC (SKOV3, MCF-7, Hep3B and SW480); conditions: 50 μM, 24 hours; compared to the 2D control group
Description: as §1, §2

Q: For `COc1cccc2c1C(=O)c1c(O)c3c(c(O)c1C2=O)C[C@@](O)(C(=O)CO)C[C@@H]3O[C@H]1C[C@H](N)[C@H](O)[C@H](C)O1` [Dox, doxorubicin], which “drug resistance (cell viability)” value [1] is on record?
A: Its value is “complete resistance”.

Q: And the “drug resistance (cell viability)” value [2]?
A: Its value is “complete resistance”.

Q: And the “drug resistance (cell viability)” value [3]?
A: Its value is “higher resistance”.
